In experiment [1] the target is T1, rat CTR (Rattus norvegicus, UniProt P32214).
T1 construct: expressed in transfected cells; host or cells: BHK tk-ts 13, transient (FuGENE 6)
T1 sequence (P32214 25-479 isoform P32214-2 limits assumed): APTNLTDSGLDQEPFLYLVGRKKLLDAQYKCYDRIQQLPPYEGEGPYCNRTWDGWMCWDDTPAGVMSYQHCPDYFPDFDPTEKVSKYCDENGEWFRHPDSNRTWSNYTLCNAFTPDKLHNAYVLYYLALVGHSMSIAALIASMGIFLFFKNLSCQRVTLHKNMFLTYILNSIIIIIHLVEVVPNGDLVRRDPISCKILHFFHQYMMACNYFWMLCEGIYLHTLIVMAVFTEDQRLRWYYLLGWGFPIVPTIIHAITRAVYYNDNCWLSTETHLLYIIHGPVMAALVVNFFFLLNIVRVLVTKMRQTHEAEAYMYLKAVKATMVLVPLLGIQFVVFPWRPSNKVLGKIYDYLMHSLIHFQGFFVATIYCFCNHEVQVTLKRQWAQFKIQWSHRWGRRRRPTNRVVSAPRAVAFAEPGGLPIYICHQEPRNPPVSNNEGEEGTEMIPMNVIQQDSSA
Nature of the experiment: cAMP FlashPlate assay, rat CTR. In kind it is cell-based. Conditions: cAMP (rat receptor assay).

The target of experiment [2] is T2, hCTR (Homo sapiens, UniProt P30988).
T2 sequence (P30988 25-474): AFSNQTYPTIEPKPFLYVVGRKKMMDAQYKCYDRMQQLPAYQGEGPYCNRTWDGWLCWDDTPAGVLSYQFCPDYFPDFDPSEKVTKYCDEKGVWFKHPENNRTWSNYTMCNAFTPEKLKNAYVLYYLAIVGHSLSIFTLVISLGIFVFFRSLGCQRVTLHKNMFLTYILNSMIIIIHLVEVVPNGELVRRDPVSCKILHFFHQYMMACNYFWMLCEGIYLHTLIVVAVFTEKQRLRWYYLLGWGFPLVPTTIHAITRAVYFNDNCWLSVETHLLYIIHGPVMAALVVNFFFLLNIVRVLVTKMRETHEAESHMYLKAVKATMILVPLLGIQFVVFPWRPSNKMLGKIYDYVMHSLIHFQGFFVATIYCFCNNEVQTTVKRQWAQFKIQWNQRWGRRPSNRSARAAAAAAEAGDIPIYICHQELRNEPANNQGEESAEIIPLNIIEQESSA
The experiment in a line: scintillation proximity binding assay, hCTR membranes. Further details: expressed in transfected cells; host or cells: BHK tk-ts 13, transient (FuGENE 6); membranes for the SPA, whole cells for the species-specific assays. The procedure: The apparent binding affinities were determined using a scintillation proximity assay with beads from PerkinElmer and cell membranes containing the AMY3R or CTRs. […] Membranes were harvested and membranes were prepared and kept at −80 °C until use. The assay was performed in a 384-well Optiplate (PerkinElmer). Membranes were mixed with scintillation proximity assay beads in a 1:1 ratio. […] Samples were analyzed on a TopCounter (Packard). The IC50 values were calculated using GraphPad Prism. See Supporting Information S7: SAR Screening Assay Methods (Binding Assays (Human and Rat)) for more information.
Binding Assays (Human and Rat). Brief descriptions of the methods used to determine binding affinities for SAR analysis are described below. Curves and IC50 values were plotted and calculated in GraphPad Prism using nonlinear regression (one site binding competition analysis), with pIC50 values […]
values were used to calculate the binding affinity ratios in order to express the selectivity of compounds for the AMY3R versus the CTR.
CTR Binding Assay. The binding assay was performed using scintillation proximity assay (SPA) beads (RPNQ0001) from PerkinElmer and cell membranes containing either the hCTR or rCTR. BHK […]
Membranes were prepared in the following way: the cells were rinsed with PBS and incubated with Versene for approximately 5 min before harvesting. The cells were flushed with PBS and the cell-suspension was centrifuged for 5 min at 1000 rpm. Cells were homogenized (Ultra Turrax) in a buffer […]
containing 20 mM Na-HEPES and 0.1 mM EDTA (pH 7.4, buffer 2). The resulting pellet was re-suspended in buffer 2 and protein concentration was measured (BCA protein assay, Pierce). The homogenate was kept cold during the whole procedure. The membranes were stored at –80 °C until […]
The binding assay was performed in a 384-well Optiplate (PerkinElmer) in a total volume of 40 μL.
Membranes were mixed with SPA beads in a 1:1 ratio. […]
mg/well. Test compounds were dissolved in DMSO and further diluted in assay buffer (50 mM HEPES, pH 7.4, 1 mM CaCl2, 5 mM MgCl2, 0.1% ovalbumin, and 0.02% Tween-20).
Calcitonin (NEX422 PerkinElmer) was dissolved in assay buffer and added to the Optiplate at a final […]
prior to centrifugation (1500 rpm, 10 min). Samples were analyzed on TopCounter (Packard).

In experiment [3] the test system is rats. Nature of the experiment: Acute food intake in rats. In kind it is in vivo, rat. Conditions: single sc injection of 30 nmol/kg, relative to vehicle, mean ± SEM, n = 5–7 per group.
[4] abbreviates: Tables S12 and S14, read-out: rCTR pEC50 (converted).
[5] abbreviates: transiently transfected BHK tk-ts 13 cells, FlashPlate, 30 min room temperature, 2% HSA, read-out: rCTR EC50.
The mark [6] stands for this setting: SPA binding assay, Tables S13 and S15, read-out: hCTR pIC50 (converted).
Setting [7] is: SPA, BHK cell membranes, 125I-Calcitonin 75 pM, 120 min 25 °C, read-out: hCTR IC50.
The mark [8] stands for this setting: SPA binding assay, Tables S13 and S15.

Where two headings read alike, the source gives them in different places. Numbered stars: 1 amine (or outer) side, 2 acyl side, 3 side chain; on linkers, the order of the positions; unused ones are H or OH. Bridge positions count the residues as written; N and C are the ends. Peptide text beside a SMILES is read from it. * marks the point of attachment. C20 diacid = O=C(O)CCCCCCCCCCCCCCCCCCC(=O)*; γGlu = O=C(O)[C@H](CCC(=O)[*:2])N[*:1]

Regarding `CC[C@H](C)[C@H](NC(=O)[C@H](C)NC(=O)CNC(=O)[C@H](Cc1ccccc1)NC(=O)[C@H](CC(N)=O)NC(=O)[C@@H]1CCCN1C(=O)[C@H](CO)NC(=O)[C@H](CO)NC(=O)[C@H](Cc1c[nH]cn1)NC(=O)[C@H](CCCNC(=N)N)NC(=O)[C@H](CC(C)C)NC(=O)[C@H](Cc1ccccc1)NC(=O)[C@H](CC(N)=O)NC(=O)[C@H](C)NC(=O)[C@H](CC(C)C)NC(=O)[C@H](CCCNC(=N)N)NC(=O)[C@H](CCC(N)=O)NC(=O)[C@@H](NC(=O)[C@H](C)NC(=O)[C@@H]1CSSC[C@H](NC(=O)[C@H](CCCCN)NC(=O)CC[C@H](NC(=O)CCCCCCCCCCCCCCCCCCC(=O)O)C(=O)O)C(=O)N[C@@H](CC(N)=O)C(=O)N[C@@H]([C@@H](C)O)C(=O)N[C@@H](C)C(=O)N[C@@H]([C@@H](C)O)C(=O)N1)[C@@H](C)O)C(=O)N1CCC[C@H]1C(=O)N[C@@H](CO)C(=O)N[C@@H](CO)C(=O)N[C@H](C(=O)N[C@@H](CC(N)=O)C(=O)N[C@H](C(=O)NCC(=O)N[C@@H](Cc1c[nH]cn1)C(=O)N[C@@H](CC(N)=O)C(=O)N[C@H](C(=O)N[C@@H](Cc1ccc(O)cc1)C(N)=O)[C@@H](C)O)C(C)C)[C@@H](C)O` [Peptide 17], the EC50 in experiment [1] (setting [4]) is 17 nM; in experiment [1] (setting [5]), 16.8 nM. The IC50 in experiment [2] (setting [6]) and in experiment [2] (setting [7]) was 14.1 nM each time.
As for `CC[C@H](C)[C@H](NC(=O)[C@H](C)NC(=O)CNC(=O)[C@H](Cc1ccccc1)NC(=O)[C@H](CC(N)=O)NC(=O)[C@@H]1CCCN1C(=O)[C@H](CO)NC(=O)[C@H](CO)NC(=O)[C@H](Cc1c[nH]cn1)NC(=O)[C@H](CCCNC(=N)N)NC(=O)[C@H](CC(C)C)NC(=O)[C@H](Cc1ccccc1)NC(=O)[C@H](CC(N)=O)NC(=O)[C@H](C)NC(=O)[C@H](CC(C)C)NC(=O)[C@H](CCCNC(=N)N)NC(=O)[C@H](CCC(N)=O)NC(=O)[C@@H](NC(=O)[C@H](C)NC(=O)[C@@H]1CSSC[C@H](NC(=O)[C@H](CCCCN)NC(=O)CC[C@H](NC(=O)CCCCCCCCCCCCCCCCCCC(=O)O)C(=O)O)C(=O)N[C@@H](CC(N)=O)C(=O)N[C@@H]([C@@H](C)O)C(=O)N[C@@H](C)C(=O)N[C@@H]([C@@H](C)O)C(=O)N1)[C@@H](C)O)C(=O)N1CCC[C@H]1C(=O)N[C@@H](CO)C(=O)N[C@@H](CO)C(=O)N[C@H](C(=O)N[C@@H](CC(N)=O)C(=O)N[C@H](C(=O)NCC(=O)N[C@@H](CCCNC(=N)N)C(=O)N[C@@H](CC(N)=O)C(=O)N[C@H](C(=O)N[C@@H](Cc1ccc(O)cc1)C(N)=O)[C@@H](C)O)C(C)C)[C@@H](C)O` [Peptide 16], the “hCTR pIC50” value in experiment [2] (setting [8]) is recorded as 7.71. In experiment [3], the “Acute food intake reduction 0–24 h” value is 32 ± 4% and the “Acute food intake reduction 24–48 h” value came out at 4 ± 5%.
As to `CC[C@H](C)[C@H](NC(=O)[C@H](C)NC(=O)CNC(=O)[C@H](Cc1ccccc1)NC(=O)[C@H](CC(N)=O)NC(=O)[C@@H]1CCCN1C(=O)[C@H](CO)NC(=O)[C@H](CO)NC(=O)[C@H](Cc1c[nH]cn1)NC(=O)[C@H](CCCNC(=N)N)NC(=O)[C@H](CC(C)C)NC(=O)[C@H](Cc1ccccc1)NC(=O)[C@H](CC(N)=O)NC(=O)[C@H](C)NC(=O)[C@H](CC(C)C)NC(=O)[C@H](CCCNC(=N)N)NC(=O)[C@H](CCC(N)=O)NC(=O)[C@@H](NC(=O)[C@H](C)NC(=O)[C@@H]1CSSC[C@H](NC(=O)[C@H](CCCCN)NC(=O)CC[C@H](NC(=O)CCCCCCCCCCCCCCCCCCC(=O)O)C(=O)O)C(=O)N[C@@H](CC(N)=O)C(=O)N[C@@H]([C@@H](C)O)C(=O)N[C@@H](C)C(=O)N[C@@H]([C@@H](C)O)C(=O)N1)[C@@H](C)O)C(=O)N1CCC[C@H]1C(=O)N[C@@H](CO)C(=O)N[C@@H](CO)C(=O)N[C@H](C(=O)N1CCC[C@H]1C(=O)N[C@H](C(=O)NCC(=O)N[C@@H](CO)C(=O)N[C@@H](CCC(=O)O)C(=O)N[C@H](C(=O)N[C@@H](Cc1ccc(O)cc1)C(N)=O)[C@@H](C)O)C(C)C)[C@@H](C)O` [Peptide 11] ({C20 diacid-γGlu}-KCNTATCATQRLANFLRHSSPNFGAIPSSTPVGSETY-NH2; disulfide 2-7), the EC50 in experiment [1] (setting [4]) and in experiment [1] (setting [5]) was 16.2 nM each time. The results for the IC50 in experiment [2] (setting [6]) and in experiment [2] (setting [7]) were 12 nM and 11.9 nM, respectively.
`CC[C@H](C)[C@H](NC(=O)[C@H](C)NC(=O)CNC(=O)[C@H](Cc1ccccc1)NC(=O)[C@H](CC(N)=O)NC(=O)[C@@H]1CCCN1C(=O)[C@H](CO)NC(=O)[C@H](CO)NC(=O)[C@H](Cc1c[nH]cn1)NC(=O)[C@H](CCCNC(=N)N)NC(=O)[C@H](CC(C)C)NC(=O)[C@H](Cc1ccccc1)NC(=O)[C@H](CCC(=O)O)NC(=O)[C@H](C)NC(=O)[C@H](CC(C)C)NC(=O)[C@H](CCCNC(=N)N)NC(=O)[C@H](CCC(N)=O)NC(=O)[C@@H](NC(=O)[C@H](C)NC(=O)[C@@H]1CSSC[C@H](NC(=O)[C@H](CCCCN)NC(=O)CC[C@H](NC(=O)CCCCCCCCCCCCCCCCCCC(=O)O)C(=O)O)C(=O)N[C@@H](CC(N)=O)C(=O)N[C@@H]([C@@H](C)O)C(=O)N[C@@H](C)C(=O)N[C@@H]([C@@H](C)O)C(=O)N1)[C@@H](C)O)C(=O)N1CCC[C@H]1C(=O)N[C@@H](CO)C(=O)N[C@@H](CO)C(=O)N[C@H](C(=O)N[C@@H](CC(N)=O)C(=O)N[C@H](C(=O)NCC(=O)N1CCC[C@H]1C(=O)N[C@@H](CC(N)=O)C(=O)N[C@H](C(=O)N[C@@H](Cc1ccc(O)cc1)C(N)=O)[C@@H](C)O)C(C)C)[C@@H](C)O` [Peptide 12] ({C20 diacid-γGlu}-KCNTATCATQRLAEFLRHSSPNFGAIPSSTNVGPNTY-NH2; disulfide 2-7): in experiment [2] (setting [8]), the “hCTR pIC50” value worked out at 8.96. Besides, in experiment [3], the “Acute food intake reduction 24–48 h” value is given as 7 ± 7%.

The values above are taken from PMC11284788, “NN1213 – A Potent, Long-Acting, and Selective Analog of Human Amylin” (Journal of Medicinal Chemistry, 2024).
